Structures can show the parent of a compound that is named as a salt. Non-standard residues stand in square brackets, D forms with d. Residues, ends and D or L forms follow the SMILES beside them. dPhe(4-Cl) = N[C@H](Cc1ccc(Cl)cc1)C(=O)O; d2Nal = N[C@H](Cc1ccc2ccccc2c1)C(=O)O; Lys(iPr) = CC(C)NCCCC[C@H](N)C(=O)O; d3Pal = N[C@H](Cc1cccnc1)C(=O)O
What follows are compounds tested on ovulation in female rats (assay: Anti-ovulatory activity (AOA) in vivo assay in rats). Conditions: dose 1 μg per rat.
Set-up: species or system rat
Procedure: As used herein, “LHRH antagonist peptide” is intended to include peptides and peptide analogs which inhibit LHRH activity (i.e., has “LHRH antagonist activity”) in vivo or in vitro. Candidate LHRH antagonist peptides can be assayed, for example, in the animal model described in Corbin and Beattie, Endocrine Res. Commun. 2:1 (1975) (and see infra). In this assay, the LHRH antagonistic activity of a candidate compound is assayed by measuring the antiovulatory activity (AOA) of the compound in rats.
Anti-ovulatory activity (AOA) was measured by an in vivo assay in rats, as described in Corbin and Beattie, Endocrine Res. Commun. 2:1 (1975). In brief, female rats are injected with a candidate LHRH antagonist on the day of proestrus; in general, the candidate LHRH antagonist was dissolved in 0.1% DMSO. The ability of the candidate peptide to inhibit ovulation is measured by determining the number of rats which ovulate. A candidate peptide is considered to have LHRH antagonist qualities if it inhibits ovulation in at least 50% of the treated rats at a dose of 5 μg per rat. Preferred LHRH antagonists inhibit ovulation in at least 50% of rats at a dose of 2 μg per rat, more preferably at a dose of […], and still more preferably at a dose of 0.5 μg per rat.

Compound	AO activity (AOA): rats which ovulate / rats treated
Ac-D-Nal^1, 4-Cl-D-Phe^2, D-Pal^3, His^5D-Pal(iPr)^6, Lys(iPr)^8, D-Ala^10-LHRH.2TFA [Compound 3754]	5/8@1.0
Ac-D-Nal^1, 4-Cl-D-Phe^2, D-Pal^3, Lys(CNa)^5, D-Lys(CNa)^6, Lys(iPr)^8, D-Ala^10-LHRH.2TFA [Compound 3551]	6/8@1 μg
Ac-D-Nal^1, 4-Cl-D-Phe^2, D-Pal^3, Lys(ClNic)^5, D-Lys(ClNic)^6, Lys(iPr)^8, D-Ala^10-LHRH.2TFA [Compound 3544]	6/8@1 μg
Ac-D-Nal^1, 4-Cl-D-Phe^2, D-Pal^3, Lys(Nic)^5, D-Pal(Bzl)^6, Lys(iPr)^8, D-Ala^10-LHRH.3TFA [Compound 3547]	6/8@1 μg
Ac-D-Nal^1, 4-Cl-D-Phe^2, D-Pal^3, Lys(ONic)^5, D-Lys(ONic)^6, Lys(iPr)^8, D-Ala^10-LHRH.TFA [Compound 3503]	6/8@1 μg
Ac-D-Nal^1, 4-Cl-D-Phe^2, D-Pal^3, Lys(Otac)^5, D-Lys(Otac)^6, Lys(iPr)^8, D-Ala^10-LHRH.TFA [Compound 3502]	6/8@1 μg
Ac-D-Nal^1, 4-Cl-D-Phe^2, D-Pal^3, Lys(Pyz)^5, D-Lys(Pyz)^6, Lys(iPr)^8, D-Ala^10-LHRH.TFA [Compound 3504]	4/8@1 μg
Ac-D-Nal^1, 4-Cl-D-Phe^2, D-Pal^3, Lys(TFAc)^6, Lys(iPr)^8, D-Ala^10-LHRH.2TFA [Compound 3546]	6/8@1 μg
Ac-D-Nal^1, 4-Cl-D-Phe^2, D-Pal^3, Lys(iPr)^5, D-Lys(4HBc)^6, Lys(iPr)^8, D-Ala^10-LHRH.2TFA [Compound 3745]	6/8@1.0
Ac-D-Nal^1, 4-Cl-D-Phe^2, D-Pal^3, Lys(iPr)^5, D-Trp^6, Trp^7,Orn^8, D-Ala^10-LHRH.TFA [Compound 3855]	4/8@1.0
Ac-D-Nal^1, 4-Cl-D-Phe^2, D-Pal^3, Lys^5, D-Pal(iPr)^6, Lys(iPr)^8, D-Ala^10-LHRH.4TFA [Compound 3548]	6/8@1 μg
Ac-D-Nal^1, 4-Cl-D-Phe^2, D-Pal^3, N-Me-Ala^5, D-Pal(iPr)^6, Lys(iPr)^8, D-Ala^10-LHRH.2TFA [Compound 3757]	7/8@1.0
Ac-D-Nal^1, 4-Cl-D-Phe^2, D-Pal^3, N-Me-Tyr^5, D-Lys(Ac)^6, Lys(iPr)^8, D-Ala^10-LHRH.TFA [Compound 3829]	8/8@1.0
Ac-D-Nal^1, 4-Cl-D-Phe^2, D-Pal^3, Pal^5, D-Cit^6, Lys(iPr)^8, D-Ala^10-LHRH.TFA [Compound 3432]	7/8@1 μg
Ac-D-Nal^1, 4-Cl-D-Phe^2, D-Pal^3, Ser^5, D-Pal(iPr)^6, Lys(iPr)^8, D-Ala^10-LHRH.2TFA [Compound 3743]	8/8@1.0
Ac-D-Nal^1, 4-Cl-D-Phe^2, D-Pal^3,D-Lys(Mts)^6, Lys(iPr)^8, D-Ala^10-LHRH.TFA [Compound 3761]	7/8@1.0
Ac-D-Nal^1, 4-Cl-D-Phe^2, D-Phe^2, D-Pal^3, Ala^5, D-Pal(iPr)^6, Lys(iPr)^8, D-Ala^10-LHRH.2TFA [Compound 3756]	6/8@1.0
Ac-D-Nal^1, 4-Cl-D-Phe^2, D-Trp^3, D-Arg^6, Lys(COCH2Br)^8, D-Ala^10-LHRH.TFA [Compound 3926]	6/8@1.0

Compound	AO activity (AOA): rats which ovulate / rats treated
Ac-D-Nal^1, 4-Cl-D-Phe^2, D-Trp^3, D-Arg^6, Met^8, D-Ala^10-LHRH.TFA [Compound 3880]	8/8@1.0
Ac-D-Nal^1, 4-Cl-D-Phe^2, D-Trp^3, D-Met(S^+CH2C6H5)^6, D-Ala^10-LHRH.2TFA [Compound 3961]	3/8@1.00
Ac-D-Nal^1, 4-Cl-D-Phe^2, D-Trp^3, D-Met(S^+CH2—CH═CH2)^6, D-Ala^10-LHRH.2TFA [Compound 3984]	3/8@1.00
Ac-D-Nal^1, 4-Cl-D-Phe^2, D-Trp^3, D-Met^6, D-Ala^10-LHRH.TFA [Compound 3881]	7/8@1.0
Ac-D-Nal^1, C^αMe-4Cl-Phe^2, D-Pal^3, N^αMe-Tyr^5, D-Pal(iPr)^6, Lys(iPr)^8, D-Ala^10-LHRH.TFA [Compound 3541]	1/8@1 μg
Ac-D-Pal^1, 4-Cl-D-Phe^2, D-Pal^3, D-Pal(iPr)^6, Lys(iPr)^8, D-Ala^10-LHRH.2TFA [Compound 3804]	8/8@1.0
Ac-D-Qal^1, 4-Cl-D-Phe^2, D-Pal^3, D-Lys(Ac)^6, Lys(iPr)^8, D-Ala^10-LHRH.TFA [Compound 3740]	6/8@1.0
Ac-D-Qal^1, 4-Cl-D-Phe^2, D-Pal^3, D-Lys(Dodac)^6, Lys(iPr)^8, D-Ala^10-LHRH.TFA [Compound 3742]	6/8@1.0
Ac-D-Qal^1, 4-Cl-D-Phe^2, D-Pal^3, D-Lys(Gulonyl)^6, Lys(iPr)^8, D-Ala^10-LHRH.TFA [Compound 3785]	7/8@1.0
Ac-D-Qal^1, 4-Cl-D-Phe^2, D-Pal^3, D-Lys(Imdac)^6, Lys(iPr)^8, D-Ala^10-LHRH.TFA [Compound 3800]	7/8@1.0
Ac-D-Qal^1, 4-Cl-D-Phe^2, D-Pal^3, D-Lys(Onic)^6, Lys(iPr)^8, D-Ala^10-LHRH.TFA [Compound 3801]	8/8@1.0
Ac-D-Qal^1, 4-Cl-D-Phe^2, D-Pal^3, D-Lys(Otac)^6, Lys(iPr)^8, D-Ala^10-LHRH.TFA [Compound 3802]	5/8@1.0
Ac-D-Qal^1, 4-Cl-D-Phe^2, D-Pal^3, D-Lys(Ppic)^6, Lys(iPr)^8, D-Ala^10-LHRH.TFA [Compound 3787]	7/8@1.0
Ac-D-Qal^1, 4-Cl-D-Phe^2, D-Pal^3, D-Lys(pGlu)^6, Lys(iPr)^8, D-Ala^10-LHRH.TFA [Compound 3723]	7/8@1.0
Ac-N^αMe-D-Nal^1, 4-Cl-D-Phe^2, D-Pal^3, D-Cit^6, Lys(iPr)^8, D-Ala^10-LHRH.TFA [Compound 3442]	7/8@1 μg
Ac-Sar^1, 4-Cl-D-Phe^2, 1-1-Nal^3, D-Pal(Bzl)^6, Lys(iPr)^8,D-Ala^10-LHRH.2TFA [Compound 3769]	6/8@1.0
Ac-Sar^1, 4-Cl-D-Phe^2, D-1-Nal^3, D-Pal(iPr)^6, Lys(iPr)^8, D-Ala^10-LHRH.2TFA [Compound 3772]	8/8@1.0
Ac-Sar^1, 4-Cl-D-Phe^2, L-1-Nal^3, D-Pal(iPr)^6, Lys(iPr)^8, D-Ala^10-LHRH.2TFA [Compound 3773]	7/8@1.0

Same assay, conditions: dose 2 μg per rat

Compound	AO activity (AOA): rats which ovulate / rats treated
Ac-D-Nal^1, 4-Cl-D-Phe^2, D-Trp^3, D-Met(S^+CH2C6H5)^6, D-Ala^10-LHRH.2TFA [Compound 3961]	4/8@2.00

Same assay, conditions: dose 5 μg per rat

Compound	AO activity (AOA): rats which ovulate / rats treated
Ac-D-Nal^1, 4-Cl-D-Phe^2, D-Pal^3, Lys(iPr)^5, D-His^6, Trp^7, Orn^8, D-Ala^10-LHRH.TFA [Compound 3852]	8/8@5.0
Ac-L-(or D)-9-anthryl-Ala^1, 4-Cl-D-Phe^2, D-Pal^3, D-Cit^6-Lys(iPr)^8, D-Ala^10-LHRH.TFA [Compound 3367]	7/8@5 μg

Same assay, conditions: dose 50 μg per rat

Compound	AO activity (AOA): rats which ovulate / rats treated
Lys(COCH2Br)^8-LHRH [Compound 3942]	8/8@50.0
Met(S^+Me)^8-LHRH.TFA [Compound 3941]	8/8@50.0

Same assay, conditions: rat, in vivo

Compound	AO activity (AOA), in words
Ac-D-Nal^1, 4-Cl-D-Phe^2, D-Trp^3, D-Lys(COCH2Br)^6, D-Ala^10-LHRH.TFA [Compound 3948]	low activity

Each compound was assayed on rat mast cells (assay: Histamine release assay, rat mast cells). Conditions: not given.
Procedure: The term “histamine-releasing activity”, as used herein, refers to the tendency of a compound to release histamine when administered to a subject. The histamine-releasing activity of a compound can be measured with an in vitro assay (described in more detail, infra). […] Histamine-releasing activity was assayed by the method described in U.S. Pat. No. 4,851,385 to Roeske. Briefly, a suspension of rat mast cells was added to increasing concentrations of an LHRH antagonist peptide and incubated for 15 minutes at 37° C. The buffer contained 25 mM PIPES, pH 7.4, NaCl (119 mM), KCl (5 mM), NaOH (40 mM) glucose (5.6 mM), CaCl2 (1 mM) and 0.1% bovine serum albumin.

Compound	Histamine-releasing activity, in words
CC(=O)N[C@H](Cc1ccc2ccccc2c1)C(=O)N[C@H](Cc1ccc(Cl)cc1)C(=O)N[C@H](Cc1cccnc1)C(=O)N[C@@H](CO)C(=O)N[C@@H](Cc1ccc(O)cc1)C(=O)N[C@H](CCC(N)=O)C(=O)N[C@@H](CC(C)C)C(=O)N[C@@H](CCCCNC(C)C)C(=O)N1CCC[C@H]1C(=O)N[C@H](C)C(N)=O [Compound 3341, Ac-D-Nal^1,4-Cl-D-Phe^2, D-Pal^3, D-Gln^6-Lys(iPr)^8, D-Ala^10-LHRH.TFA] (Ac-[d2Nal][dPhe(4-Cl)][d3Pal]SY[dQ]L[Lys(iPr)]P[dA]-NH2)	very low histamine release
